Results as given in PubChem BioAssay (NCI).
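In this assay, cells in 96-well plates receive the compound at five concentrations for 48 hours. Endpoints are linearly interpolated between the surrounding concentrations. TGI denotes the concentration required for complete inhibition of growth.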

Legend:
Assay in all cases: NCI-60 cell line screen, 48 h
[1] = tested on: DMS 273 small cell lung
[2] = tested on: HCC-2998 colon
[3] = tested on: NCI-H522 lung
[4] = tested on: LOX IMVI melanoma
[5] = tested on: RXF 393 renal
[6] = tested on: UACC-62 melanoma
[7] = tested on: SK-MEL-28 melanoma
[8] = tested on: M14 melanoma
[9] = tested on: HT29 colon
[10] = tested on: TK-10 renal
[11] = tested on: RPMI-8226 leukemia
[12] = tested on: SK-MEL-5 melanoma
[13] = tested on: OVCAR-4 ovarian
[14] = tested on: CAKI-1 renal
[15] = tested on: DLD-1 colon
[16] = tested on: SNB-19 CNS
[17] = tested on: SF-539 CNS
[18] = tested on: OVCAR-3 ovarian
[19] = tested on: A549 NSCLC
[20] = tested on: SK-OV-3 ovarian
[21] = tested on: COLO 205 colon
[22] = tested on: KM12 colon
[23] = tested on: HOP-92 NSCLC
[24] = tested on: NCI-H460 lung
[25] = tested on: MOLT-4 leukemia
[26] = tested on: SW-620 colon
[27] = tested on: NCI-H226 lung
[28] = tested on: UACC-257 melanoma
[29] = tested on: CCRF-CEM leukemia
[30] = tested on: DMS 114 small cell lung
[31] = tested on: SNB-75 CNS
[32] = tested on: SNB-78 CNS
[33] = tested on: LXFL 529 NSCLC
[34] = tested on: IGROV1 ovarian
[35] = tested on: K-562 leukemia
[36] = tested on: NCI-H23 lung
[37] = tested on: U251 CNS
[38] = tested on: OVCAR-8 ovarian
[39] = tested on: HL-60(TB) leukemia
[40] = tested on: EKVX NSCLC
[41] = tested on: SF-295 CNS
[42] = tested on: MDA-MB-435
[43] = tested on: PC-3 prostate
[44] = tested on: BT-549 breast
[45] = tested on: A498 renal
[46] = tested on: SK-MEL-2 melanoma
[47] = tested on: HCT-116 colon
[48] = tested on: UO-31 renal
[49] = tested on: MALME-3M melanoma
[50] = tested on: SN12C renal
[51] = tested on: HCT-15 colon
[52] = tested on: NCI/ADR-RES ovarian
[53] = tested on: MDA-N
[54] = tested on: HS 578T breast
[55] = tested on: DU-145 prostate
[56] = tested on: T-47D breast
[57] = tested on: MCF7 breast
[58] = tested on: SR leukemia
[59] = tested on: 786-0 renal
[60] = tested on: SF-268 CNS
[61] = tested on: ACHN renal
[62] = tested on: MDA-MB-231 breast
[63] = tested on: HOP-62 NSCLC
[64] = tested on: OVCAR-5 ovarian

CCSc1nc2cccc([N+](=O)[O-])c2n1CC
TGI [1]: > 100 µM
TGI [2]: > 100 µM
TGI [3]: > 100 µM
TGI [4]: > 100 µM
TGI [5]: > 100 µM
TGI [6]: > 100 µM
TGI [7]: > 100 µM
TGI [8]: > 100 µM
TGI [9]: > 100 µM
TGI [10]: > 100 µM
TGI [11]: > 100 µM
TGI [12]: > 100 µM
TGI [13]: > 100 µM
TGI [14]: > 100 µM
TGI [15]: > 100 µM
TGI [16]: > 100 µM
TGI [17]: > 100 µM
TGI [18]: > 100 µM
TGI [19]: > 100 µM
TGI [20]: > 100 µM
TGI [21]: > 100 µM
TGI [22]: > 100 µM
TGI [23]: > 100 µM
TGI [24]: > 100 µM
TGI [25]: > 100 µM
TGI [26]: > 100 µM
TGI [27]: > 100 µM
TGI [28]: > 100 µM
TGI [29]: > 100 µM
TGI [30]: > 100 µM
TGI [31]: > 100 µM
TGI [32]: > 100 µM
TGI [33]: > 100 µM
TGI [34]: > 100 µM
TGI [35]: > 100 µM
TGI [36]: > 100 µM
TGI [37]: > 100 µM
TGI [38]: > 100 µM
TGI [39]: > 100 µM
TGI [40]: > 100 µM

COc1ccc2c(c1)[nH]c1c(/C=C/c3ccccc3)nccc12
TGI [2]: 29.9 µM
TGI [3]: 29 µM
TGI [4]: 63.2 µM
TGI [5]: 38 µM
TGI [41]: 24.2 µM
TGI [6]: 28.9 µM
TGI [7]: 31.9 µM
TGI [42]: 49 µM
TGI [8]: 35.3 µM
TGI [9]: 33.9 µM
TGI [43]: 38.9 µM
TGI [10]: 39.7 µM
TGI [44]: 29.9 µM
TGI [11]: 93.5 µM
TGI [12]: 36.6 µM
TGI [13]: > 100 µM
TGI [14]: 52 µM
TGI [45]: 26.6 µM
TGI [46]: 33.2 µM
TGI [47]: 30.4 µM
TGI [16]: 38.5 µM
TGI [48]: 24 µM
TGI [49]: 31.5 µM
TGI [17]: 32.3 µM
TGI [18]: 36.9 µM
TGI [50]: 30.2 µM
TGI [51]: 34.7 µM
TGI [52]: 37.9 µM
TGI [53]: 37.2 µM
TGI [19]: 37.2 µM
TGI [54]: 45.3 µM
TGI [55]: 51.8 µM
TGI [20]: 34.9 µM
TGI [21]: 19.9 µM
TGI [56]: > 100 µM
TGI [22]: 41.2 µM
TGI [23]: 44.4 µM
TGI [24]: 33.7 µM
TGI [25]: > 100 µM
TGI [26]: 91.9 µM
TGI [27]: 53.1 µM
TGI [28]: 31.1 µM
TGI [29]: > 100 µM
TGI [31]: 32.3 µM
TGI [57]: 41.6 µM
TGI [34]: > 100 µM
TGI [35]: > 100 µM
TGI [58]: > 100 µM
TGI [59]: 42.2 µM
TGI [36]: 35.9 µM
TGI [37]: 38.9 µM
TGI [60]: 36.7 µM
TGI [61]: 28.4 µM
TGI [62]: 37.2 µM
TGI [63]: 41.4 µM
TGI [64]: 30.5 µM
TGI [38]: 42.2 µM
TGI [39]: 54 µM
TGI [40]: 29.6 µM
